Measurements from ChEMBL document CHEMBL3792297, “Studies on phenothiazines: New microtubule-interacting compounds with phenothiazine A-ring as potent antineoplastic agents” (Bioorg Med Chem, 2016).

Key:
[1] = Growth inhibition of human SKOV3 cells after 48 hrs by SRB assay; type: functional; conditions: SK-OV-3, 48 h
[2] = Growth inhibition of human OVCAR4 cells at 10 uM after 48 hrs by SRB assay relative to control; type: functional; conditions: OVCAR-4, 48 h, read-out: GI
[3] = test system: MDA-MB-468; test: Growth inhibition of human MDA-MB-468 cells after 48 hrs by SRB assay; type: functional; conditions: MDA-MB-468, 48 h
[4] = Growth inhibition of human OVCAR5 cells after 48 hrs by SRB assay; type: functional; conditions: OVCAR-5, 48 h
[5] = test system: KM12; test: Growth inhibition of human KM12 cells at 10 uM after 48 hrs by SRB assay relative to control; type: functional; conditions: KM12, 48 h, read-out: GI
[6] = Growth inhibition of human MOLT4 cells at 10 uM after 48 hrs by SRB assay relative to control; type: functional; conditions: MOLT-4, 48 h, read-out: GI
[7] = species: Ovis aries; test: Inhibition of sheep brain tubulin polymerization at 100 uM by DAPI staining-based fluorimetric method
[8] = test system: MCF7; test: Growth inhibition of human MCF7 cells after 48 hrs by SRB assay; type: functional; conditions: MCF7, 48 h
[9] = Growth inhibition of human HCC2998 cells after 48 hrs by SRB assay; type: functional; conditions: HCC 2998, 48 h
[10] = Growth inhibition of human SNB75 cells at 10 uM after 48 hrs by SRB assay relative to control; type: functional; conditions: SNB-75, 48 h, read-out: GI
[11] = test system: CCRF-CEM; test: Growth inhibition of human CCRF-CEM cells at 10 uM after 48 hrs by SRB assay relative to control; type: functional; conditions: read-out: GI
[12] = Growth inhibition of human UACC257 cells at 10 uM after 48 hrs by SRB assay relative to control; type: functional; conditions: UACC-257, 48 h, read-out: GI
[13] = Growth inhibition of human HOP92 cells after 48 hrs by SRB assay; type: functional; conditions: HOP-92, 48 h
[14] = Growth inhibition of human MOLT4 cells after 48 hrs by SRB assay; type: functional; conditions: MOLT-4, 48 h
[15] = Growth inhibition of human SNB75 cells after 48 hrs by SRB assay; type: functional; conditions: SNB-75, 48 h
[16] = Growth inhibition of human NCI-ADR-RES cells at 10 uM after 48 hrs by SRB assay relative to control; type: functional; conditions: read-out: GI
[17] = Growth inhibition of human LOXIMVI cells after 48 hrs by SRB assay; type: functional; conditions: LOX IMVI
[18] = test system: NCI-H460; test: Growth inhibition of human NCI-H460 cells after 48 hrs by SRB assay; type: functional; conditions: NCI-H460, 48 h
[19] = test system: CCRF-CEM; test: Growth inhibition of human CCRF-CEM cells after 48 hrs by SRB assay; type: functional
[20] = Growth inhibition of human COLO205 cells after 48 hrs by SRB assay; type: functional; conditions: COLO 205, 48 h
[21] = Growth inhibition of human SF295 cells after 48 hrs by SRB assay; type: functional; conditions: SF-295, 48 h
[22] = Growth inhibition of human SW620 cells at 10 uM after 48 hrs by SRB assay relative to control; type: functional; conditions: SW-620, 48 h, read-out: GI
[23] = test system: SN12C; test: Growth inhibition of human SN12C cells after 48 hrs by SRB assay; type: functional
[24] = test system: U-251; test: Growth inhibition of human U251 cells after 48 hrs by SRB assay; type: functional; conditions: U-251, 48 h
[25] = test system: SK-MEL-5; test: Growth inhibition of human SK-MEL-5 cells after 48 hrs by SRB assay; type: functional; conditions: SK-MEL-5, 48 h
[26] = Growth inhibition of human RXF393 cells at 10 uM after 48 hrs by SRB assay relative to control; type: functional; conditions: RXF 393, 48 h, read-out: GI
[27] = Growth inhibition of human HL-60(TB) cells at 10 uM after 48 hrs by SRB assay relative to control; type: functional; conditions: HL-60, 48 h, read-out: GI
[28] = test system: SK-MEL-28; test: Growth inhibition of human SK-MEL-28 cells after 48 hrs by SRB assay; type: functional; conditions: SK-MEL-28, 48 h
[29] = test system: SN12C; test: Growth inhibition of human SN12C cells at 10 uM after 48 hrs by SRB assay relative to control; type: functional; conditions: read-out: GI
[30] = Growth inhibition of human HCT15 cells at 10 uM after 48 hrs by SRB assay relative to control; type: functional; conditions: HCT-15, 48 h, read-out: GI
[31] = test system: 786-0; test: Growth inhibition of human 786-0 cells after 48 hrs by SRB assay; type: functional; conditions: 786-0, 48 h
[32] = test system: MDA-MB-231; test: Growth inhibition of human MDA-MB-231 cells at 10 uM after 48 hrs by SRB assay relative to control; type: functional; conditions: MDA-MB-231, 48 h, read-out: GI
[33] = test system: Malme-3M; test: Growth inhibition of human MALME-3M cells at 10 uM after 48 hrs by SRB assay relative to control; type: functional; conditions: read-out: GI
[34] = Growth inhibition of human SF539 cells at 10 uM after 48 hrs by SRB assay relative to control; type: functional; conditions: SF-539, 48 h, read-out: GI
[35] = Growth inhibition of human OVCAR3 cells after 48 hrs by SRB assay; type: functional; conditions: OVCAR-3, 48 h
[36] = test system: HT-29; test: Growth inhibition of human HT-29 cells at 10 uM after 48 hrs by SRB assay relative to control; type: functional; conditions: HT-29, 48 h, read-out: GI
[37] = test system: SK-MEL-5; test: Growth inhibition of human SK-MEL-5 cells at 10 uM after 48 hrs by SRB assay relative to control; type: functional; conditions: SK-MEL-5, 48 h, read-out: GI
[38] = test system: K562; test: Growth inhibition of human K562 cells after 48 hrs by SRB assay; type: functional; conditions: K562, 48 h
[39] = Growth inhibition of human UACC62 cells after 48 hrs by SRB assay; type: functional; conditions: UACC-62, 48 h
[40] = Growth inhibition of human Hs 578T cells at 10 uM after 48 hrs by SRB assay relative to control; type: functional; conditions: read-out: GI
[41] = Growth inhibition of human HCT116 cells after 48 hrs by SRB assay; type: functional; conditions: HCT-116, 48 h
[42] = Growth inhibition of human SF268 cells at 10 uM after 48 hrs by SRB assay relative to control; type: functional; conditions: SF-268, 48 h, read-out: GI
[43] = Growth inhibition of human TK10 cells at 10 uM after 48 hrs by SRB assay relative to control; type: functional; conditions: TK-10, 48 h, read-out: GI
[44] = test system: SR; test: Growth inhibition of human SR cells at 10 uM after 48 hrs by SRB assay relative to control; type: functional; conditions: read-out: GI
[45] = Growth inhibition of human RPMI8226 cells after 48 hrs by SRB assay; type: functional; conditions: RPMI-8226, 48 h

SMILES: COc1ccc(C(=O)N2c3ccccc3Sc3ccccc32)cc1F
- GI50 [1]: 306 nM
- inhibition of growth at 10 µM [2]: 59%
- GI50 [3]: 231 nM
- GI50 [4]: 418 nM
- inhibition of growth at 10 µM [5]: 81%
- inhibition of growth at 10 µM [6]: 67%
- inhibition [7]: 99%
- GI50 [8]: 346 nM
- GI50 [9]: 470 nM
- inhibition of growth at 10 µM [10]: 81%
- inhibition of growth at 10 µM [11]: 88%
- inhibition of growth at 10 µM [12]: 50%
- GI50 [13]: 1130 nM
- GI50 [14]: 323 nM
- GI50 [15]: 270 nM
- inhibition of growth at 10 µM [16]: 100%
- GI50 [17]: 672 nM
- GI50 [18]: 340 nM
- GI50 [19]: 287 nM
- GI50 [20]: 236 nM
- GI50 [21]: 251 nM
- inhibition of growth at 10 µM [22]: 80%
- GI50 [23]: 525 nM
- GI50 [24]: 353 nM
- GI50 [25]: 443 nM
- inhibition of growth at 10 µM [26]: 84%
- inhibition of growth at 10 µM [27]: 89%
- GI50 [28]: 320 nM
- inhibition of growth at 10 µM [29]: 66%
- inhibition of growth at 10 µM [30]: 76%
- GI50 [31]: 609 nM
- inhibition of growth at 10 µM [32]: 69%
- inhibition of growth at 10 µM [33]: 45%
- inhibition of growth at 10 µM [34]: 91%
- GI50 [35]: 249 nM
- inhibition of growth at 10 µM [36]: 100%
- inhibition of growth at 10 µM [37]: 93%
- GI50 [38]: 110 nM
- GI50 [39]: 128 nM
- inhibition of growth at 10 µM [40]: 100%
- GI50 [41]: 358 nM
- inhibition of growth at 10 µM [42]: 58%
- inhibition of growth at 10 µM [43]: 49%
- inhibition of growth at 10 µM [44]: 75%
- GI50 [45]: 336 nM
